Values of other authors in patent US12527793B2, “Pharmaceutical compositions” (Shenzhen Pharmacin Co., Ltd., priority 2020, dated 2026).

Conditions: background statement

SMILES | Solubility in water
Cc1cn(-c2cc(NC(=O)c3ccc(C)c(Nc4nccc(-c5cccnc5)n4)c3)cc(C(F)(F)F)c2)cn1 [Nilotinib, 4-methyl-N-[3-(4-methyl-1H-imidazol-1-yl)-5-(trifluoromethyl)phenyl]-3-{[4-(pyridin-3-yl)pyrimidin-2-yl]amino}benzamide] | practically insoluble

Conditions: source footnote 1: Pallicer et al., ADMET & DMPK 2(2) (2014) 107-114

SMILES | Experimental log P
O=c1cc(-c2ccc(O)cc2)oc2cc(O)cc(O)c12 [Apigenin] | 3.02^1
CN(C)CCC(c1ccc(Br)cc1)c1ccccn1 (stereo not shown) [Brompheniramine] | 2.88^1
CCCCN1CCCCC1C(=O)Nc1c(C)cccc1C (stereo not shown) [Bupivacaine] | 3.41^1
Cc1ccc(-c2cc(C(F)(F)F)nn2-c2ccc(S(N)(=O)=O)cc2)cc1 [Celecoxib] | 3.91^1
CN(C)CCC(c1ccc(Cl)cc1)c1ccccn1 (stereo not shown) [Chlorphenamine] | 3.17^1
CN(C)CCCN1c2ccccc2Sc2ccc(Cl)cc21 [Chlorpromazine] | 5.27^1
O=c1cc(-c2ccccc2)oc2cc(O)cc(O)c12 [Chrysin] | 3.52^1
C=C[C@H]1CN2CC[C@H]1C[C@H]2[C@H](O)c1ccnc2ccccc12 [Cinchonidine] | 2.6^1
CC(C)/N=c1\cc2n(-c3ccc(Cl)cc3)c3ccccc3nc-2cc1Nc1ccc(Cl)cc1 [Clofazimine] | 6.3^1
CC(C)(Oc1ccc(Cl)cc1)C(=O)O [Clofibric acid] | 2.57^1
COC(=O)[C@H](c1ccccc1Cl)N1CCc2sccc2C1 [Clopidogrel] | 4.52^1
CCc1cc2c(s1)N(C)C(=O)CN=C2c1ccccc1Cl [Clotiazepam] | 3.49^1
COc1ccc([C@@H]2Sc3ccccc3N(CCN(C)C)C(=O)[C@@H]2OC(C)=O)cc1 [Diltiazem] | 2.84^1
CNCC[C@H](Oc1cccc2ccccc12)c1cccs1 [Duloxetine] | 4.54^1
O=C(O)CCC(=O)c1ccc(-c2ccccc2)cc1 [Fenbufen] | 3.2^1
O=C(O)c1ccccc1Nc1cccc(C(F)(F)F)c1 [Flufenamic acid] | 5.19^1

SMILES | Experimental log P
CNCCC(Oc1ccc(C(F)(F)F)cc1)c1ccccc1 (stereo not shown) [Fluoxetine] | 4.42^1
CCN(CC)CCN1C(=O)CN=C(c2ccccc2F)c2cc(Cl)ccc21 [Flurazepam] | 3.94^1
CC(C(=O)O)c1ccc(-c2ccccc2)c(F)c1 (stereo not shown) [Flurbiprofen] | 3.84^1
CCC1=C(C)CN(C(=O)NCCc2ccc(S(=O)(=O)NC(=O)N[C@H]3CC[C@H](C)CC3)cc2)C1=O [Glimepiride] | 3.97^1
O=C(CCCN1CCC(O)(c2ccc(Cl)cc2)CC1)c1ccc(F)cc1 [Haloperidol] | 3.82^1
COc1ccc([C@@H]2CC(=O)c3c(O)cc(O)cc3O2)cc1O [Hesperetin] | 2.60^1
COc1ccc2c(c1)c(CC(=O)O)c(C)n2C(=O)c1ccc(Cl)cc1 [Indometacin] | 4.1^1
O=C1C[C@@H](c2ccc(O)cc2)Oc2cc(O)cc(O)c21 [Naringenin] | 2.52^1
OCCOCCN1CCN(C2=Nc3ccccc3Sc3ccccc32)CC1 [Quetiapine] | 3.13^1
C=C[C@H]1C[N@@]2CC[C@H]1C[C@H]2[C@H](O)c1ccnc2ccc(OC)cc12 [Quinine] | 2.64^1
CN(CCOc1ccc(CC2SC(=O)NC2=O)cc1)c1ccccn1 (stereo not shown) [Rosiglitazone] | 3.1^1
CN[C@H]1CC[C@@H](c2ccc(Cl)c(Cl)c2)c2ccccc21 [Sertraline] | 5.17^1
COc1cccc(C2(O)CCCCC2CN(C)C)c1 (stereo not shown) [Tramadol] | 2.7^1
O=c1n(CCCN2CCN(c3cccc(Cl)c3)CC2)nc2ccccn12 [Trazodone] | 2.82^1
COc1ccc(C(CN(C)C)C2(O)CCCCC2)cc1 (stereo not shown) [Venlafaxine] | 3.05^1

Same assay, conditions: source footnote 5: experimental values listed on www.drugbank.ca

SMILES | Experimental log P
C=CC(=O)N1CCC[C@@H](n2nc(-c3ccc(Oc4ccccc4)cc3)c3c(N)ncnc32)C1 [Ibrutinib] | 3.97 ^5
C[C@@H](Oc1cc(-c2cnn(C3CCNCC3)c2)cnc1N)c1c(Cl)ccc(F)c1Cl [crizotinib] | 1.83 ^5
Cc1nc(Nc2ncc(C(=O)Nc3c(C)cccc3Cl)s2)cc(N2CCN(CCO)CC2)n1 [dasatinib] | 1.8 ^5
CS(=O)(=O)CCNCc1ccc(-c2ccc3ncnc(Nc4ccc(OCc5cccc(F)c5)c(Cl)c4)c3c2)o1 [lapatinib] | 5.4 ^5
CO[C@@H]1[C@H](N(C)C(=O)c2ccccc2)C[C@H]2O[C@]1(C)n1c3ccccc3c3c4c(c5c6ccccc6n2c5c31)C(=O)NC4 [midostaurin] | 5.89 ^5
COC(=O)c1ccc2c(c1)NC(=O)/C2=C(\Nc1ccc(N(C)C(=O)CN2CCN(C)CC2)cc1)c1ccccc1 [nintedanib] | 3.0 ^5
CNC(=O)c1cc(Oc2ccc(NC(=O)Nc3ccc(Cl)c(C(F)(F)F)c3)cc2)ccn1 [sorafenib] | 3.8 ^5
CCCS(=O)(=O)Nc1ccc(F)c(C(=O)c2c[nH]c3ncc(-c4ccc(Cl)cc4)cc23)c1F [vemurafenib] | 5.1 ^5
